Data published in US9079866B2, “Flap modulators” (JANSSEN PHARMACEUTICA NV, priority 2013, dated 2015).
Where two headings read alike, the source gives them in different places.

What was measured:
human FLAP = human FLAP (Homo sapiens (Human), UniProt P20292); assay: FLAP binding assay (HTRF format); conditions: HTRF format
Summary of the method: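 Binding of compounds to FLAP read out as HTRF ratio. Values are the mean of two assay plates, each sample run in duplicate per plate.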

[1] = system: leukotriene pathway in human whole blood (LTB4 levels); assay: Human whole blood assay (A23187-stimulated LTB4); format: cell-based; conditions: read-out: LTB4 IC50 1:1
Summary of the method: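 Blood (heparin) diluted 1:1 RPMI; compound pre-incubation 15 min, 37° Celsius; A23187 7 μg/mL, 30 min, 37° Celsius; plasma LTB4 by commercial kit. IC50 via 4-parameter equation.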

[2] = Homo sapiens, human whole blood diluted 1:1, A23187-stimulated
[3] = human FLAP wild type, average of two plates, duplicates
[4] = Homo sapiens, human whole blood diluted 1:1 in RPMI, A23187-stimulated LTB4

Chain of human FLAP (P20292 whole entry): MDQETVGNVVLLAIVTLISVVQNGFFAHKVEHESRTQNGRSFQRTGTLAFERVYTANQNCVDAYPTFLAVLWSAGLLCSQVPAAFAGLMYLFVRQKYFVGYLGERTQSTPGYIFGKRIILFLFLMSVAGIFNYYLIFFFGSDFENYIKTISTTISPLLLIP

| SMILES | Ki (human FLAP; wild type FLAP) | IC50 [1, 2] | Ki (human FLAP; [3]) | IC50 [1, 4] | IC50 ([1]; human whole blood diluted 1:1 in RPMI, A23187-stimulated LTB4) |
| --- | --- | --- | --- | --- | --- |
| Nc1cnc(-c2ccc(-c3ccccc3S(=O)(=O)N3C[C@H](O)[C@@H](O)C3)cc2F)cn1 (relative stereo) [Example 106, (trans)-1-{[4′-(5-Aminopyrazin-2-yl)-3′-fluorobiphenyl-2-yl]sulfonyl}pyrrolidine-3,4-diol] |  |  | 19 nM | > 1000 nM |  |
| Nc1cnc(-c2ccc(-c3ccccc3S(=O)(=O)NC3CCc4ccccc43)cc2F)cn1 (stereo in doubt) [Example 22, (S)-4′-(5-Aminopyrazin-2-yl)-N-[(1S)-2,3-dihydro-1H-inden-1-yl]-3′-fluorobiphenyl-2-sulfonamide] |  |  | 2 nM | 48 nM |  |
| C[C@H](NS(=O)(=O)c1ccccc1-c1ccc(-c2cnc(N)cn2)c(F)c1)C(O)c1ccccc1 (stereo in doubt) [Example 83, 4′-(5-Aminopyrazin-2-yl)-3′-fluoro-N-[(1S,2R)-2-hydroxy-1-methyl-2-phenylethyl]biphenyl-2-sulfonamide] |  |  | 1 nM | 19 nM |  |
| NC[C@H]1CCCN1S(=O)(=O)c1ccccc1-c1ccc(-c2cnc(N)cn2)c(F)c1 (stereo in doubt) [Example 94, 5-(2′-{[2-(Aminomethyl)pyrrolidin-1-yl]sulfonyl}-3-fluorobiphenyl-4-yl)pyrazin-2-amine] |  |  | 76 nM | 235 nM |  |
| CC(CO)NS(=O)(=O)c1ccccc1-c1ccc(-c2ccc(N)nc2)c(F)c1 (stereo in doubt) [Example 352, (R)-4′-(6-Aminopyridin-3-yl)-3′-fluoro-N-(1-hydroxypropan-2-yl)-[1,1′-biphenyl]-2-sulfonamide] |  |  | 16 nM |  | 64 nM |
| CC(CO)NS(=O)(=O)c1ccccc1-c1ccc(-c2cnc3[nH]ccc3n2)c(F)c1 (stereo in doubt) [Example 378, 3′-Fluoro-N-[(1R)-2-hydroxy-1-methylethyl]-4′-(5H-pyrrolo[2,3-b]pyrazin-2-yl)biphenyl-2-sulfonamide] |  |  | 1 nM | 16 nM |  |
| CS(=O)(=O)c1ccccc1-c1ccc(-c2cnc(N)cn2)c(F)c1 [Example 1, 5-[3-Fluoro-2′-(methylsulfonyl)biphenyl-4-yl]pyrazin-2-amine] |  |  | 217 nM | 860 nM |  |

More lines, main results first:

| Ki (human FLAP; wild type FLAP) | IC50 [1, 2] | Ki (human FLAP; [3]) | IC50 [1, 4] | SMILES | IC50 ([1]; human whole blood diluted 1:1 in RPMI, A23187-stimulated LTB4) |
| --- | --- | --- | --- | --- | --- |
| 257 nM | 220 nM |  |  | Nc1cnc(-c2ccc(-c3ccccc3C(=O)N3CCOC(CO)C3)cc2F)cn1 (racemic) [Example 798, [2-[4-(5-Aminopyrazin-2-yl)-3-fluoro-phenyl]phenyl]-[2-(hydroxymethyl)morpholin-4-yl]methanone] |  |
|  |  | 1 nM | 46 nM | CC(CO)NS(=O)(=O)c1ccccc1-c1ccc(-c2cnc3[nH]ccc3n2)c(F)c1 (stereo in doubt) [Example 380, 3′-Fluoro-N-[(1S)-2-hydroxy-1-methylethyl]-4′-(5H-pyrrolo[2,3-b]pyrazin-2-yl)biphenyl-2-sulfonamide] |  |
| 4 nM | 88 nM |  |  | CC(CO)NS(=O)(=O)c1ccccc1-c1ccc(-c2cnc(N)c(C#N)n2)c(F)c1 (stereo in doubt) [Example 410, 4′-(5-amino-6-cyanopyrazin-2-yl)-3′-fluoro-N-[(1R)-2-hydroxy-1-methylethyl]biphenyl-2-sulfonamide] |  |
| 19 nM | 509 nM |  |  | CC(CO)NS(=O)(=O)c1ccccc1-c1ccc(-c2cnc(N)c(C#N)n2)c(F)c1 (stereo in doubt) [Example 412, 4′-(5-Amino-6-cyanopyrazin-2-yl)-3′-fluoro-N-[(1S)-2-hydroxy-1-methylethyl]biphenyl-2-sulfonamide] |  |
| 503 nM | 1830 nM |  |  | CC(CO)Oc1ncccc1-c1ccc(-c2cnc(N)cn2)c(F)c1 (stereo in doubt) [Example 655, (2R)-2-({3-[4-(5-Aminopyrazin-2-yl)-3-fluorophenyl]pyridin-2-yl}oxy)propan-1-ol] |  |
| 73.5 nM | 2340 nM |  |  | CC(CO)Oc1ncccc1-c1ccc(-c2cnc(N)cn2)c(F)c1 (stereo in doubt) [Example 657, (2S)-2-({3-[4-(5-Aminopyrazin-2-yl)-3-fluorophenyl]pyridin-2-yl}oxy)propan-1-ol] |  |
